Experiments:
[1] = biological target: Full-length DnaK (FL, flDnaK) (Escherichia coli, UniProt P0A6Y8); test: isothermal titration calorimetry; format: binding
[2] = biological target: β-domain of DnaK (SBD), residues 393–507 (Escherichia coli, UniProt P0A6Y8); test: isothermal titration calorimetry; format: binding
Sequence of β-domain of DnaK (SBD), residues 393–507 (P0A6Y8 393-507): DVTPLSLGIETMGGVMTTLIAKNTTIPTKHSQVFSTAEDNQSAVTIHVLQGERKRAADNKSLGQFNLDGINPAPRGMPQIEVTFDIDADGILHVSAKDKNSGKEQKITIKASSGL

Sequence of Full-length DnaK (FL, flDnaK) (P0A6Y8 2-638): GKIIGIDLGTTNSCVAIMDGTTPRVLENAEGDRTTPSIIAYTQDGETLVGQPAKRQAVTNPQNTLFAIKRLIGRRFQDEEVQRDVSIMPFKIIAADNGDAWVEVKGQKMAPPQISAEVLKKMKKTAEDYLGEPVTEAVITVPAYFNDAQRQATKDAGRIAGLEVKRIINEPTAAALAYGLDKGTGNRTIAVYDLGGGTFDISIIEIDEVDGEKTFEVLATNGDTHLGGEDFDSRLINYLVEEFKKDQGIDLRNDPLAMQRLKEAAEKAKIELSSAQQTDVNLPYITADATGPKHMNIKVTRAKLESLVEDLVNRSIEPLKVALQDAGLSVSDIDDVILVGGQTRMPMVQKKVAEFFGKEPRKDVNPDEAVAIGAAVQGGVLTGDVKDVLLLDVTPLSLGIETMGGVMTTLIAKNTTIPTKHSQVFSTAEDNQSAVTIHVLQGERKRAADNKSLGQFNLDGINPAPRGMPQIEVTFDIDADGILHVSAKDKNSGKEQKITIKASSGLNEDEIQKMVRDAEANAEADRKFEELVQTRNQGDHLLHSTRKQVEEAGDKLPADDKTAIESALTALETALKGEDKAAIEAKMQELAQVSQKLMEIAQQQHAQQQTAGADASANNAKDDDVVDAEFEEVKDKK

Compound | Kd [1] [nM] | Kd [2] [nM]
O=C(NCc1cc(Cl)cc(Cl)c1)c1cccs1 [F9, N-(3,5-dichlorobenzyl)thiophene-2-carboxamide] | 2800 | –
Nc1ncnc2c1ncn2[C@@H]1O[C@H](COP(=O)(O)OP(=O)(O)OP(=O)(O)O)[C@@H](O)[C@H]1O [ATP] | 10 | –
O=C(NCc1cccc2ccsc12)c1cccs1 [D10, N-(benzo[b]thiophen-7-ylmethyl)thiophene-2-carboxamide] | 200 | –
O=C(NCc1ccccc1O)c1cccs1 [F8, N-(2-hydroxybenzyl)thiophene-2-carboxamide] | 2300 | –
O=C(NCc1cccc2ccccc12)c1cccs1 [D5, N-(naphthalen-1-ylmethyl)thiophene-2-carboxamide] | 1700 | 1000
O=C(NCc1c(Cl)cccc1Cl)c1cccs1 [F7, N-(2,6-dichlorobenzyl)thiophene-2-carboxamide] | 1500 | –
O=C(Nc1ncc2ccccc2n1)c1cccs1 [D9, N-(quinazolin-2-yl)thiophene-2-carboxamide] | – | 1500
O=C(NCc1ccc(Cl)c(Cl)c1)c1cccs1 [F6, N-(3,4-dichlorobenzyl)thiophene-2-carboxamide] | 7300 ± 6400 | –
O=C(c1cccs1)N1CCN(CCO)CC1 [F10, (4-(2-hydroxyethyl)piperazin-1-yl)(thiophen-2-yl)methanone] | 16700 | –
O=C(Nc1ccc2[nH]ccc2c1)c1cccs1 [D7, N-(1H-indol-5-yl)thiophene-2-carboxamide] | 12700 | 4900
